Test results from US20250057849A1, “ANTIVIRAL COMPOSITION COMPRISING NUCLEOSIDE ANALOGUES DERIVED FROM NUCLEIC ACID AND PHARMACEUTICALLY ACCEPTABLE SALT THEREOF” (CJ CheilJedang Corporation, priority 2021, published 2025).
Read-outs that look alike come from different tables or passages of the source.

Assays:
[1] = system: PRRSV (NA type, VR-2332 strain); assay: PRRSV infection inhibition in Marc-145 cells (immunofluorescence staining); format: cell-based, Porcine Reproductive and Respiratory Syndrome virus; settings: for IC50: Marc-145 cells, 100 TCID50/ml PRRSV, three days after treatment, read-out: PRRSV infection inhibition concentration IC50
[2] = system: PEDV (G1a type, SM98 strain); assay: PEDV infection inhibition in Vero cells (PEDV detection kit on isolated RNA); format: cell-based, Porcine Epidemic Diarrhea virus; settings: for IC50: Vero cells, 200 TCID50/ml PEDV, after 2 days, read-out: PEDV infection inhibition concentration IC50
Procedure: The next day, PEDV (G1a type, SM98 strain) of 200 TCID50/ml and inosine, xanthosine and guanosine in the dialdehyde and acyclic diol forms were treated to the cells simultaneously, and after 2 days, using commercialized Viral gene (DNA/RNA) extraction kit (iNtRON, 101410754), RNA was isolated. For the isolated RNA, using commercialized PEDV detection kit (Mediandiagnostics, NS-PED-31), the antiviral efficacy of the materials was verified.

PCV2 = PCV2 infection inhibition in PK15 cells (qPCR); format: cell-based, Porcine Circovirus Type 2; settings: for IC50: PK15 cells, 200 TCID50/well PCV2, after 4 days, read-out: PCV2 infection inhibition concentration IC50
Procedure: For the isolated DNA, using PCV2-specific primers (F-[…] , R-[…] ) and realtime RT-qPCR experimental method (95° C., 30 seconds 1 cycle, 95° C., 20 seconds, 56° C., 60 seconds 40 cycles), the antiviral efficacy of the materials was verified.

PRV = assay: microbe, parasite or virus in culture; format: cell-based, Porcine Rotavirus; settings: for IC50: read-out: PRV infection inhibition concentration IC50
[3] = system: Swine Influenza virus (SIV); assay: organism not typed; format: cell-based; settings: for IC50: read-out: SIV infection inhibition concentration IC50
IBV = assay: microbe, parasite or virus in culture; format: cell-based, Avian Infectious Bronchitis virus; settings: for IC50: read-out: IBV infection inhibition concentration IC50
NDV = assay: microbe, parasite or virus in culture; format: cell-based, Avian Newcastle Disease virus; settings: for IC50: read-out: NDV infection inhibition concentration IC50
BVDV = BVDV infection inhibition in MDBK cells (RT-qPCR); format: cell-based, Bovine Viral Diarrhea virus; settings: for IC50: MDBK cells, 200 TCID50/well BVDV, after 4 days, read-out: BVDV infection inhibition concentration IC50
Procedure: The next day, BVDV of 200 TCID50/well and inosine, xanthosine and guanosine in the dialdehyde and acyclic diol forms were treated to the cells simultaneously, and after 4 days, using commercialized Viral gene (DNA/RNA) extraction kit (iNtRON, 101410754), RNA was isolated.
For the isolated RNA, using BVDV-specific primers (F-[…] , R-[…] ) and realtime RT-qPCR experimental method (94° C., 10 minutes 1 cycle, 94° C., 10 seconds, 53° C., 20 seconds, 72° C., 30 seconds 35 cycles), the antiviral efficacy of the materials was verified.

BRV = BRV infection inhibition in MDBK cells (RT-qPCR); format: cell-based, Bovine Rotavirus; settings: for IC50: MDBK cells, 200 TCID50/well BRV, after 4 days, read-out: BRV infection inhibition concentration IC50
Procedure: The next day, BRV of 200 TCID50/well and inosine, xanthosine and guanosine in the dialdehyde and acyclic diol forms were treated to the cells simultaneously, and after 4 days, using commercialized Viral gene (DNA/RNA) extraction kit (iNtRON, 101410754), RNA was isolated.
For the isolated RNA, using BRV-specific primers (F-[…] , R-[…] ) and realtime RT-qPCR experimental method (95° C., 10 minutes 1 cycle, 95° C., 15 seconds, 60° C., 15 seconds, 72° C., 20 seconds 40 cycles), the antiviral efficacy of the materials was confirmed.

CPV = CPV infection inhibition in MDCK cells (qPCR); format: cell-based, Canine Parvovirus; settings: for IC50: MDCK cells, 200 TCID50/well CPV, after 4 days, read-out: CPV infection inhibition concentration IC50 (Table 10)
Procedure: For the isolated DNA, using CPV-specific primers (F-[…] , R-[…] ) and realtime RT-qPCR experimental method (95° C., 5 minutes 1 cycle, 95° C., 10 seconds, 60° C., 30 seconds, 40 cycles), the antiviral efficacy of the materials was confirmed.

[4] = mouse, in vivo
[5] = system: Influenza virus (2009 pandemic strain, CA04); settings: for abnormal lesions due to fed materials (liver, stomach, spleen, kidney, heart, small intestine, large intestine): 250 mg/kg
PK15 cell line = assay: Cytotoxicity, PK15 cell test; settings: read-out: CC50 (Table 3, PCV2); cytotoxicity
MDCK cell line = assay: Cytotoxicity, MDCK cell tests; settings: cytotoxicity
MDBK cell line = assay: Cytotoxicity, MDBK cell tests; settings: cytotoxicity
Marc-145 cell line = assay: Cytotoxicity (WST-1 / DAPI staining), PRRSV test cells
[6] = Water solubility (stated); format: physicochemical
in vitro = settings: monkey
[7] = Cytotoxicity, PK15 cell test; settings: pig, PK15 cells
[8] = Cytotoxicity, MDCK cell tests; settings: dog, MDCK cells
[9] = Cytotoxicity, MDBK cell tests; settings: bovine, MDBK cells
PRRSV (NA strain) = assay: PRRS virus challenge test using piglets
[10] = Cytotoxicity (WST-1 / DAPI staining), PRRSV test cells; settings: monkey, Marc-145 cells (monkey kidney)
[11] = mice, 100 MLD50 CA04, 250 mg/kg intragastric
[12] = autopsy at 2 weeks, 50 mg/kg/day oral

`Nc1nc2c(ncn2[C@@H](C=O)O[C@@H](C=O)CO)c(=O)[nH]1` [Dialdehyde-guanosine, dialdehyde form of guanosine] gave an IC50 [1] of 40 µM, a PRRSV infection inhibition ([1]; at 40 μM) of 50% and a PRRSV infection inhibition ([1]; at 100 μM) of no less than 90%. The IC50 [2] was 157 µM, the IC50 (PCV2) was 96.6 µM and the IC50 (PRV) was 177 µM. It also gave an IC50 ([3]; MDCK cells, 200 TCID50/well SIV, after 4 days) of 171 µM, an IC50 (IBV; Vero cells, 200 TCID50/well IBV, after 4 days) of 275 µM and an IC50 (NDV; Vero cells, 200 TCID50/well NDV, after 3 days) of 1120 µM. It also gave an IC50 (BVDV) of 2760 µM, an IC50 (BRV) of 88.3 µM and an IC50 (CPV) of 2060 µM. For the same compound, the CC50 (Vero cell line) was greater than 6000 µM, the “time when 50% of the remaining materials was measured (based on AUC values)” value ([4]; ip, 50 mg/kg) was “about 6 hours” and the “time when 50% of the remaining materials was measured (based on AUC values)” value ([4]; po, 250 mg/kg) was “about 9 hours”. The “amount of the virus remaining in the lung tissue (PCR)” value ([5]; mouse, in vivo) was “slightly lower”, the “clinical symptoms after SIV challenge” value ([5]; mouse, in vivo) was “very mild symptoms” and the “lung lesions at autopsy” value ([5]; mouse, in vivo) was “mild lung lesions”. The “survival rate on the 7th day” value ([5]; mouse, in vivo) was 80%, the “survival rate predicted on the 8th day based on all data up to the 7th day” value ([5]; mouse, in vivo) was 60% and the “weight loss after SIV challenge” value ([5]; mouse, in vivo) was “very slight”. For the same compound, the “abnormal lesions due to fed materials (liver, stomach, spleen, kidney, heart, small intestine, large intestine)” value ([5]; mouse, in vivo) was “not observed”, the CC50 (PK15 cell line) was greater than 6000 µM and the CC50 (MDCK cell line; read-out: CC50 (Table 5, SIV)) was greater than 6000 µM. It also gave a CC50 (MDCK cell line; read-out: CC50 (Table 10, CPV)) greater than 6000 µM, a CC50 (MDBK cell line; read-out: CC50 (Table 8, BVDV)) greater than 6000 µM and a CC50 (MDBK cell line; read-out: CC50 (Table 9, BRV)) greater than 6000 µM. For the same compound, the CC50 (Marc-145 cell line; read-out: CC50 (Table 1, PRRSV), cytotoxicity, WST-1) was greater than 6000 µM and the “cytotoxicity by DAPI staining” value (Marc-145 cell line; up to 1000 μM) was “no cytotoxicity was observed”.

With `O=C[C@@H](CO)O[C@H](C=O)n1cnc2c(=O)[nH]c(=O)[nH]c21` [Dialdehyde-xanthosine, dialdehyde form of xanthosine] the “SI (selectivity index), PRRSV” value ([1]; CC50/IC50) was greater than 133.3, the IC50 [1] was 75 µM and the “SI (selectivity index), PEDV” value ([2]; CC50/IC50) was greater than 25.1. For the same compound, the IC50 ([2]; Porcine epidemic diarrhea virus, 48 h) was 398 µM, the “SI (selectivity index), PCV2” value (PCV2; CC50/IC50) was greater than 23 and the IC50 (PCV2; Porcine circovirus 2, PK-15, 96 h) was 436 µM. For the same compound, the “SI (selectivity index), PRV” value (PRV; CC50/IC50) was greater than 110.9, the IC50 (PRV; Rotavirus C, Vero, 72 h) was no more than 100 µM and the IC50 (PRV) was 90.2 µM. For the same compound, the “SI (selectivity index), SIV” value ([3]; CC50/IC50) was greater than 13.4, the IC50 ([3]; MDCK, 96 h) was 748 µM and the IC50 (IBV; Avian coronavirus, Vero, 96 h) was 226 µM. For the same compound, the “SI (selectivity index), IBV” value (IBV; CC50/IC50) was greater than 44.3, the “SI (selectivity index), NDV” value (NDV; CC50/IC50) was greater than 19 and the IC50 (NDV; avian paramyxovirus 1, Vero, 72 h) was 526 µM. For the same compound, the IC50 (BVDV; Bovine viral diarrhea virus isolates and strains, 96 h) was 97.8 µM, the “SI (selectivity index), BVDV” value (BVDV; CC50/IC50) was greater than 102.2 and the “SI (selectivity index), BRV” value (BRV; CC50/IC50) was greater than 198.1. The IC50 (BRV; Rotavirus A, 96 h) was 50.5 µM, the “SI (selectivity index), CPV” value (CPV; CC50/IC50) was greater than 45.2 and the IC50 (CPV; Canine parvovirus, 96 h) was 221 µM. The water solubility [6] was “slightly high”, the CC50 (Vero cell line; monkey) was greater than 10000 µM and the “half-life tendency compared with guanosine in the dialdehyde form” value [4] was “shorter”. For the same compound, the “time when 50% of the remaining materials was measured (based on AUC values)” value ([4]; ip, 50 mg/kg) was “about 6 hours”, the “time when 50% of the remaining materials was measured (based on AUC values)” value ([4]; po, 250 mg/kg) was “about 6 hours” and the “survival rate on the 7th day” value [5, 11] was 100%. The “survival rate predicted on the 8th day based on all data up to the 7th day” value [5, 11] was 100%, the “amount of the virus remaining in the lung tissue (PCR)” value ([5]; mouse, in vivo) was “lowest virus titer” and the “clinical symptoms after SIV challenge” value ([5]; mouse, in vivo) was “very mild symptoms”. For the same compound, the “lung lesions at autopsy” value ([5]; mouse, in vivo) was “mild lung lesions”, the “weight loss after SIV challenge” value ([5]; mouse, in vivo) was “very slight” and the “abnormal lesions due to fed materials (liver, stomach, spleen, kidney, heart, small intestine, large intestine)” value ([5]; mouse, in vivo) was “not observed”. The CC50 (in vitro) was greater than 10000 µM, the CC50 [7] was greater than 10000 µM and the CC50 [8] was greater than 10000 µM. For the same compound, the CC50 (MDCK cell line; read-out: CC50 (Table 10, CPV)) was greater than 10000 µM, the CC50 [9] was greater than 10000 µM and the CC50 (MDBK cell line; read-out: CC50 (Table 9, BRV)) was greater than 10000 µM. The “weight gain after PRRSV infection” value (PRRSV (NA strain); 50 mg/kg/day oral twice/day, 14 days) was “no delay in weight gain”, the “PRRS virus in lung by immunohistochemistry” value (PRRSV (NA strain); [12]) was “only a very small amount of viruses were detected” and the “interstitial pneumonia lesions, visual observation of lung” value (PRRSV (NA strain); [12]) was “relatively intact lung”. For the same compound, the “virus titer in lung tissue” value (PRRSV (NA strain); [12]) was “reduced compared to the positive control group” and the CC50 [10] was greater than 10000 µM.
